From ChEMBL document CHEMBL1145337, “Antitumor agents. 5. synthesis, structure-activity relationships, and biological evaluation of dimethyl-5H-pyridophenoxazin-5-ones, tetrahydro-5h-benzopyridophenoxazin-5-ones, and 5h-benzopyridophenoxazin-5-ones with potent antiproliferative activity” (J Med Chem, 2006)
The source made the active and inactive calls. The calls are words filed in the database; no cut-off is given here. *1 amine or outer side, *2 acyl side, *3 side chain or, on linkers, in order; H or OH if unused. Where a SMILES comes first, the peptide text is derived from it. Bridges are numbered along the chain shown (N, C = ends). Roman numbers before positions name the chains, in order. [ ]: non-standard residue; d: D form. Actinocin(1to9) = Cc1c2oc3c(C)ccc(C(=O)[*:2])c3nc-2c(C(=O)[*:1])c(N)c1=O; NMeV = CN[C@H](C(=O)O)C(C)C; Sar = CNCC(=O)O

Assays:
[1] = tested on: MOLT-4; assay: Antiproliferative activity against human MOLT4 cell line by MTT assay; format: functional, cell-based
[2] = tested on: WIL2-NS; assay: Antiproliferative activity against human Wil2-NS cells by MTT assay; format: functional, cell-based
[3] = tested on: C8166; assay: Antiproliferative activity against human C8166 cell line by MTT assay; format: functional, cell-based
[4] = tested on: MT4; assay: Antiproliferative activity against human MT4 cell line by MTT assay; format: functional, cell-based
[5] = tested on: CCRF-SB; assay: Antiproliferative activity against human CCRF-SB cell line by MTT assay; format: functional, cell-based
[6] = tested on: CCRF-CEM; assay: Antiproliferative activity against human CCRF-CEM cell line by MTT assay; format: functional, cell-based
[7] = tested on: G-361; assay: Antiproliferative activity against human G361 cell line by MTT assay; format: functional, cell-based
[8] = tested on: HT-29; assay: Antiproliferative activity against human HT29 cell line by MTT assay; format: functional, cell-based
[9] = tested on: HeLa; assay: Antiproliferative activity against human HeLa cells by MTT assay; format: functional, cell-based
[10] = tested on: HEp-2; assay: Antiproliferative activity against human Hep2 cell line by MTT assay; format: functional, cell-based
[11] = tested on: ACHN; assay: Antiproliferative activity against human ACHN cell line by MTT assay; format: functional, cell-based
[12] = tested on: 5637; assay: Antiproliferative activity against human 5637 cell line by MTT assay; format: functional, cell-based
[13] = tested on: KB; assay: Antiproliferative activity against human KB cell line by MTT assay; format: functional, cell-based
[14] = target: T1, DNA topoisomerase 1 (Homo sapiens) (UniProt P11387); assay: Promotion of human topoisomerase 1-mediated DNA cleavage
T1 sequence (whole entry): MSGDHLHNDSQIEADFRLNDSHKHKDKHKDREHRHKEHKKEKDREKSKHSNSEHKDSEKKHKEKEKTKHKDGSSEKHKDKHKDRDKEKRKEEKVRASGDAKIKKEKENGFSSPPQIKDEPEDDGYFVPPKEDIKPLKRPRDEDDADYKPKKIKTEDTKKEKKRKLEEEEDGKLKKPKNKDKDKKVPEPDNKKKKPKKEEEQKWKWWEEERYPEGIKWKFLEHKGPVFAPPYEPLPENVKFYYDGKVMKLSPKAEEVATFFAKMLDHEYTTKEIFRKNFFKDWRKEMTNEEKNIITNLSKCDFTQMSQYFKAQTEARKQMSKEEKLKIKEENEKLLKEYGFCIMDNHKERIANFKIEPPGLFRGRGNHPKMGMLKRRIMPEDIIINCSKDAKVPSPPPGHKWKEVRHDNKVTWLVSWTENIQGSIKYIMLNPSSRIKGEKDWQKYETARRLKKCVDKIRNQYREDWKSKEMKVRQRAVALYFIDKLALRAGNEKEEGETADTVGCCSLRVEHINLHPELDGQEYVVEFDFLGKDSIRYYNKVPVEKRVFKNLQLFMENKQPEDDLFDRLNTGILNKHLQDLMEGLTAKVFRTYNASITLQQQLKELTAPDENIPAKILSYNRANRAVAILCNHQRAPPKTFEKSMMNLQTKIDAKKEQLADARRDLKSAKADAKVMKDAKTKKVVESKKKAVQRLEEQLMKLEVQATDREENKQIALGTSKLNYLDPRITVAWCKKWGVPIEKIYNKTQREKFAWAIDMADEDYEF

[15] = target: DNA topoisomerase II (Homo sapiens) (UniProt P11388+Q02880); assay: Promotion of human topoisomerase 2-mediated DNA cleavage; format: protein assay
[16] = tested on: HT-29; assay: Cell cycle arrest in HT29 cells by accumulation at G2/M phase by flow cytometry at […]; format: functional, Homo sapiens
[17] = tested on: HT-29; assay: Cell cycle arrest in HT29 cells by accumulation at G0/G1 phase by flow cytometry at […]; format: functional, Homo sapiens
[18] = tested on: HT-29; assay: Cell cycle arrest in HT29 cells by accumulation at S phase by flow cytometry at […]; format: functional, Homo sapiens
[19] = target: T1, DNA topoisomerase 1 (Homo sapiens); assay: Unwinding of DNA mediated by topoisomerase 1 at 20 uM

Row | SMILES | IC50 [1] | IC50 [2] | IC50 [3] | IC50 [4] | IC50 [5] | IC50 [6] | IC50 [7] | IC50 [8] | IC50 [9] | IC50 [10] | IC50 [11] | IC50 [12] | IC50 [13] | Activity [14] | Activity [15] | Activity [16] | Activity [17] | Activity [18] | Activity [19]
1 | Cc1cc(C)c2nc3c4cccnc4c(=O)cc-3oc2c1 | 500 nM | 70 nM | 200 nM | 40 nM | 20 nM | 100 nM | 1 nM | 200 nM | 200 nM | 300 nM | 1 nM | 5 nM | 300 nM | – | – | – | – | – | –
2 | O=c1cc2oc3ccc4ccccc4c3nc-2c2cccnc12 | 40 nM | 5 nM | 1 nM | 10 nM | 10 nM | 1 nM | 20 nM | 2 nM | 1 nM | 40 nM | 10 nM | 10 nM | 10 nM | inactive | inactive | 48.66% | 27.93% | 23.42% | Active
3 | Cc1ccc2oc3cc(=O)c4ncccc4c-3nc2c1C | 2700 nM | 2000 nM | 1100 nM | 300 nM | 1200 nM | 200 nM | 1300 nM | 1200 nM | 2600 nM | 1300 nM | 1800 nM | 900 nM | 700 nM | – | – | – | – | – | –
4 | Cc1cc2nc3c4cccnc4c(=O)cc-3oc2cc1C | 300 nM | 400 nM | 40 nM | 100 nM | 40 nM | 150 nM | 900 nM | 30 nM | 800 nM | 800 nM | 400 nM | 800 nM | 90 nM | – | – | – | – | – | –
5 | O=c1cc2oc3c(ccc4ccccc43)nc-2c2cccnc12 | 90 nM | 60 nM | 100 nM | 100 nM | 20 nM | 50 nM | 50 nM | 300 nM | 200 nM | 60 nM | 500 nM | 100 nM | 100 nM | inactive | inactive | 38.49% | 17.63% | 43.88% | –
6 | O=c1cc2oc3ccc4c(c3nc-2c2cccnc12)CCCC4 | 3200 nM | 4000 nM | 2000 nM | 1300 nM | 1000 nM | 1300 nM | 1300 nM | 1000 nM | 1600 nM | 1900 nM | 1800 nM | 1900 nM | 1700 nM | – | – | – | – | – | –
7 | Cc1ccc(C)c2oc3cc(=O)c4ncccc4c-3nc12 | 1600 nM | 1100 nM | 8000 nM | 80 nM | 400 nM | 700 nM | 700 nM | 5500 nM | 900 nM | 400 nM | 500 nM | 10 nM | 500 nM | – | – | – | – | – | –
8 | Cc1cc(C)c2oc3cc(=O)c4ncccc4c-3nc2c1 | 1200 nM | 900 nM | 500 nM | 100 nM | 300 nM | 150 nM | 1500 nM | 1600 nM | 1700 nM | 1100 nM | 900 nM | 600 nM | 1200 nM | – | – | – | – | – | –
9 | Cc1c2oc3c(C)ccc(C(=O)N[C@@H]4C(=O)N[C@H](C(C)C)C(=O)N5CCC[C@H]5C(=O)N(C)CC(=O)N(C)[C@@H](C(C)C)C(=O)O[C@@H]4C)c3nc-2c(C(=O)N[C@@H]2C(=O)N[C@H](C(C)C)C(=O)N3CCC[C@H]3C(=O)N(C)CC(=O)N(C)[C@@H](C(C)C)C(=O)O[C@@H]2C)c(N)c1=O [DACTINOMYCIN] (I: T[dV]P[Sar][NMeV] / II: T[dV]P[Sar][NMeV]; ester I:1-I:C, II:1-II:C; linker I:N-II:N via Actinocin(1to9)) | – | – | – | – | – | – | – | – | – | – | – | – | 1 nM | – | – | – | – | – | –
10 | Cc1ccc2nc3c4cccnc4c(=O)cc-3oc2c1C | 3000 nM | 1800 nM | 500 nM | 300 nM | 100 nM | 6000 nM | 30 nM | 6900 nM | 600 nM | 400 nM | 5 nM | 1800 nM | 400 nM | – | – | – | – | – | –
11 | O=c1cc2oc3cc4ccccc4cc3nc-2c2cccnc12 | 10 nM | 10 nM | 20 nM | 50 nM | 10 nM | 4 nM | 10 nM | 30 nM | 50 nM | 50 nM | 20 nM | 20 nM | 20 nM | inactive | inactive | 55.01% | 24.06% | 20.93% | –
12 | O=c1cc2oc3cc4c(cc3nc-2c2cccnc12)CCCC4 | 1800 nM | 1200 nM | 1000 nM | 1500 nM | 2000 nM | 1100 nM | 1500 nM | 3300 nM | 1100 nM | 1700 nM | 1400 nM | 1000 nM | 1000 nM | – | – | – | – | – | –
13 | COc1cccc2c1C(=O)c1c(O)c3c(c(O)c1C2=O)C[C@@](O)(C(=O)CO)C[C@@H]3O[C@H]1C[C@H](N)[C@H](O)[C@H](C)O1 [DOXORUBICIN] | – | – | – | – | – | – | – | – | – | – | 1 nM | – | 150 nM | – | – | – | – | – | –
14 | O=c1cc2oc3ccccc3nc-2c2cccnc12 | – | – | – | 20 nM | 10 nM | – | – | 200 nM | – | – | – | – | 100 nM | – | – | – | – | – | –
15 | O=c1cc2oc3c4c(ccc3nc-2c2cccnc12)CCCC4 | 1900 nM | 2100 nM | 1000 nM | 1500 nM | 1400 nM | 1900 nM | 2000 nM | 2100 nM | 2500 nM | 1800 nM | 1900 nM | 1100 nM | 1000 nM | – | – | – | – | – | –
